In PubChem BioAssay (NCI):
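Results reflect a 48-hour exposure of cells in 96-well plates to compound at five concentrations. TGI is the concentration that stops growth completely.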

Experiments:
Test in all cases: growth of human tumour cells (NCI), 48 h
786-0 renal = system: 786-0 renal
A549 NSCLC = system: A549 NSCLC
ACHN renal = system: ACHN renal
BT-549 breast = system: BT-549 breast
CAKI-1 renal = system: CAKI-1 renal
CCRF-CEM leukemia = system: CCRF-CEM leukemia
COLO 205 colon = system: COLO 205 colon
DU-145 prostate = system: DU-145 prostate
EKVX NSCLC = system: EKVX NSCLC
HCC-2998 colon = system: HCC-2998 colon
HCT-116 colon = system: HCT-116 colon
HCT-15 colon = system: HCT-15 colon
HL-60(TB) leukemia = system: HL-60(TB) leukemia
HOP-62 NSCLC = system: HOP-62 NSCLC
HOP-92 NSCLC = system: HOP-92 NSCLC
HS 578T breast = system: HS 578T breast
HT29 colon = system: HT29 colon
IGROV1 ovarian = system: IGROV1 ovarian
K-562 leukemia = system: K-562 leukemia
KM12 colon = system: KM12 colon
M14 melanoma = system: M14 melanoma
MALME-3M melanoma = system: MALME-3M melanoma
MCF7 breast = system: MCF7 breast
MDA-MB-231 breast = system: MDA-MB-231 breast
MDA-MB-435 = system: MDA-MB-435
MDA-N = system: MDA-N
MOLT-4 leukemia = system: MOLT-4 leukemia
NCI-H226 lung = system: NCI-H226 lung
NCI-H23 lung = system: NCI-H23 lung
NCI-H460 lung = system: NCI-H460 lung
NCI-H522 lung = system: NCI-H522 lung
NCI/ADR-RES ovarian = system: NCI/ADR-RES ovarian
OVCAR-3 ovarian = system: OVCAR-3 ovarian
OVCAR-4 ovarian = system: OVCAR-4 ovarian
OVCAR-5 ovarian = system: OVCAR-5 ovarian
OVCAR-8 ovarian = system: OVCAR-8 ovarian
PC-3 prostate = system: PC-3 prostate
RPMI-8226 leukemia = system: RPMI-8226 leukemia
RXF 393 renal = system: RXF 393 renal
SF-268 CNS = system: SF-268 CNS
SF-295 CNS = system: SF-295 CNS
SF-539 CNS = system: SF-539 CNS
SK-MEL-2 melanoma = system: SK-MEL-2 melanoma
SK-MEL-28 melanoma = system: SK-MEL-28 melanoma
SK-MEL-5 melanoma = system: SK-MEL-5 melanoma
SK-OV-3 ovarian = system: SK-OV-3 ovarian
SN12C renal = system: SN12C renal
SNB-19 CNS = system: SNB-19 CNS
SNB-75 CNS = system: SNB-75 CNS
SR leukemia = system: SR leukemia
SW-620 colon = system: SW-620 colon
T-47D breast = system: T-47D breast
TK-10 renal = system: TK-10 renal
U251 CNS = system: U251 CNS
UACC-257 melanoma = system: UACC-257 melanoma
UACC-62 melanoma = system: UACC-62 melanoma
UO-31 renal = system: UO-31 renal
A498 renal = system: A498 renal
LOX IMVI melanoma = system: LOX IMVI melanoma

CC(=O)OCC1OC(c2c(OC(C)=O)cc(C)c3c(=O)cc(/C(C(C)=O)=C(\C)O)oc23)C(OC(C)=O)C(OC(C)=O)C1OC(C)=O (centres undefined)
TGI (786-0 renal): > 100 µM
TGI (A549 NSCLC): > 100 µM
TGI (ACHN renal): > 100 µM
TGI (BT-549 breast): > 100 µM
TGI (CAKI-1 renal): > 100 µM
TGI (CCRF-CEM leukemia): > 100 µM
TGI (COLO 205 colon): > 100 µM
TGI (DU-145 prostate): > 100 µM
TGI (EKVX NSCLC): > 100 µM
TGI (HCC-2998 colon): > 100 µM
TGI (HCT-116 colon): > 100 µM
TGI (HCT-15 colon): > 100 µM
TGI (HL-60(TB) leukemia): > 100 µM
TGI (HOP-62 NSCLC): > 100 µM
TGI (HOP-92 NSCLC): > 100 µM
TGI (HS 578T breast): > 100 µM
TGI (HT29 colon): > 100 µM
TGI (IGROV1 ovarian): > 100 µM
TGI (K-562 leukemia): > 100 µM
TGI (KM12 colon): > 100 µM
TGI (M14 melanoma): > 100 µM
TGI (MALME-3M melanoma): > 100 µM
TGI (MCF7 breast): > 100 µM
TGI (MDA-MB-231 breast): > 100 µM
TGI (MDA-MB-435): > 100 µM
TGI (MDA-N): > 100 µM
TGI (MOLT-4 leukemia): > 100 µM
TGI (NCI-H226 lung): > 100 µM
TGI (NCI-H23 lung): > 100 µM
TGI (NCI-H460 lung): > 100 µM
TGI (NCI-H522 lung): > 100 µM
TGI (NCI/ADR-RES ovarian): > 100 µM
TGI (OVCAR-3 ovarian): > 100 µM
TGI (OVCAR-4 ovarian): > 100 µM
TGI (OVCAR-5 ovarian): > 100 µM
TGI (OVCAR-8 ovarian): > 100 µM
TGI (PC-3 prostate): > 100 µM
TGI (RPMI-8226 leukemia): > 100 µM
TGI (RXF 393 renal): > 100 µM
TGI (SF-268 CNS): > 100 µM
TGI (SF-295 CNS): > 100 µM
TGI (SF-539 CNS): > 100 µM
TGI (SK-MEL-2 melanoma): > 100 µM
TGI (SK-MEL-28 melanoma): > 100 µM
TGI (SK-MEL-5 melanoma): > 100 µM
TGI (SK-OV-3 ovarian): > 100 µM
TGI (SN12C renal): > 100 µM
TGI (SNB-19 CNS): > 100 µM
TGI (SNB-75 CNS): > 100 µM
TGI (SR leukemia): > 100 µM
TGI (SW-620 colon): > 100 µM
TGI (T-47D breast): > 100 µM
TGI (TK-10 renal): > 100 µM
TGI (U251 CNS): > 100 µM
TGI (UACC-257 melanoma): > 100 µM
TGI (UACC-62 melanoma): > 100 µM
TGI (UO-31 renal): > 100 µM

COc1cc(/C=C2\N=C(c3ccccc3)N(c3ccc(C(=O)c4ccccc4)cc3N3C(=O)/C(=C/c4ccc(O)c(OC)c4)N=C3c3ccccc3)C2=O)ccc1O
TGI (786-0 renal): 61.2 µM
TGI (A498 renal): 36.7 µM
TGI (A549 NSCLC): 62.7 µM
TGI (ACHN renal): 57.2 µM
TGI (BT-549 breast): > 100 µM
TGI (CAKI-1 renal): 71 µM
TGI (CCRF-CEM leukemia): > 100 µM
TGI (COLO 205 colon): 32.3 µM
TGI (DU-145 prostate): 48.6 µM
TGI (EKVX NSCLC): 76.4 µM
TGI (HCC-2998 colon): 9.69 µM
TGI (HCT-116 colon): 23.2 µM
TGI (HCT-15 colon): 40.3 µM
TGI (HL-60(TB) leukemia): 16 µM
TGI (HOP-62 NSCLC): 48.9 µM
TGI (HOP-92 NSCLC): > 100 µM
TGI (HS 578T breast): 46.6 µM
TGI (HT29 colon): 51.5 µM
TGI (IGROV1 ovarian): 29.7 µM
TGI (K-562 leukemia): 53 µM
TGI (KM12 colon): 22.4 µM
TGI (LOX IMVI melanoma): 37.1 µM
TGI (M14 melanoma): 25.1 µM
TGI (MCF7 breast): 20.2 µM
TGI (MDA-MB-231 breast): 43.8 µM
TGI (MDA-MB-435): 8.16 µM
TGI (MDA-N): 40 µM
TGI (MOLT-4 leukemia): 15.3 µM
TGI (NCI-H460 lung): 20.2 µM
TGI (NCI/ADR-RES ovarian): 89.5 µM
TGI (OVCAR-3 ovarian): 8.7 µM
TGI (OVCAR-4 ovarian): 84.4 µM
TGI (OVCAR-5 ovarian): 95.5 µM
TGI (OVCAR-8 ovarian): 32.5 µM
TGI (PC-3 prostate): 26.7 µM
TGI (RPMI-8226 leukemia): 94.3 µM
TGI (SF-268 CNS): 74 µM
TGI (SF-295 CNS): 28.8 µM
TGI (SF-539 CNS): 17.2 µM
TGI (SK-MEL-2 melanoma): 29.9 µM
TGI (SK-MEL-28 melanoma): 72.6 µM
TGI (SK-MEL-5 melanoma): 20.2 µM
TGI (SK-OV-3 ovarian): 45 µM
TGI (SN12C renal): 62.7 µM
TGI (SNB-19 CNS): > 100 µM
TGI (SNB-75 CNS): 54.3 µM
TGI (SR leukemia): 33.9 µM
TGI (SW-620 colon): > 100 µM
TGI (T-47D breast): 27.3 µM
TGI (TK-10 renal): 51.9 µM
TGI (U251 CNS): 37.5 µM
TGI (UACC-257 melanoma): 39.6 µM
TGI (UACC-62 melanoma): 30.8 µM
TGI (UO-31 renal): 27.6 µM

COc1c(/C=C/C=O)cc2c(c1OC)OCO2
TGI (786-0 renal): > 100 µM
TGI (A498 renal): 3.15 µM
TGI (A549 NSCLC): > 100 µM
TGI (ACHN renal): > 100 µM
TGI (BT-549 breast): > 100 µM
TGI (CAKI-1 renal): 29.1 µM
TGI (CCRF-CEM leukemia): > 100 µM
TGI (COLO 205 colon): > 100 µM
TGI (DU-145 prostate): > 100 µM
TGI (EKVX NSCLC): > 100 µM
TGI (HCC-2998 colon): 78.5 µM
TGI (HCT-116 colon): > 100 µM
TGI (HCT-15 colon): 40.2 µM
TGI (HL-60(TB) leukemia): 53.1 µM
TGI (HOP-62 NSCLC): 73.7 µM
TGI (HOP-92 NSCLC): > 100 µM
TGI (HS 578T breast): > 100 µM
TGI (HT29 colon): 69.5 µM
TGI (IGROV1 ovarian): 82.4 µM
TGI (KM12 colon): 29.4 µM
TGI (LOX IMVI melanoma): 76 µM
TGI (M14 melanoma): 56.2 µM
TGI (MALME-3M melanoma): 64 µM
TGI (MCF7 breast): > 100 µM
TGI (MDA-MB-231 breast): 80 µM
TGI (MDA-MB-435): > 100 µM
TGI (MDA-N): 94 µM
TGI (MOLT-4 leukemia): 49.6 µM
TGI (NCI-H226 lung): 70 µM
TGI (NCI-H23 lung): > 100 µM
TGI (NCI-H460 lung): > 100 µM
TGI (NCI-H522 lung): > 100 µM
TGI (NCI/ADR-RES ovarian): > 100 µM
TGI (OVCAR-3 ovarian): > 100 µM
TGI (OVCAR-4 ovarian): 85.6 µM
TGI (OVCAR-5 ovarian): > 100 µM
TGI (OVCAR-8 ovarian): > 100 µM
TGI (PC-3 prostate): > 100 µM
TGI (RPMI-8226 leukemia): 43.4 µM
TGI (RXF 393 renal): > 100 µM
TGI (SF-268 CNS): > 100 µM
TGI (SF-295 CNS): 52.1 µM
TGI (SF-539 CNS): > 100 µM
TGI (SK-MEL-2 melanoma): 57.4 µM
TGI (SK-MEL-28 melanoma): > 100 µM
TGI (SK-MEL-5 melanoma): 50.3 µM
TGI (SK-OV-3 ovarian): > 100 µM
TGI (SN12C renal): 59.3 µM
TGI (SNB-19 CNS): 44.8 µM
TGI (SNB-75 CNS): > 100 µM
TGI (SR leukemia): 64.8 µM
TGI (SW-620 colon): > 100 µM
TGI (T-47D breast): > 100 µM
TGI (TK-10 renal): > 100 µM
TGI (U251 CNS): 84.1 µM
TGI (UACC-257 melanoma): > 100 µM
TGI (UACC-62 melanoma): 57 µM
TGI (UO-31 renal): > 100 µM
